Consider 23 molecules from patent publication US9527842B2, “Inhibitors of human immunodeficiency virus replication” (priority 2013, dated 2016).

The conditions of series [1]: rcm bond, Hoveyda-Grubbs II, then NaOH, DCE.
For series [2] the following is noted: rcm bond, Hoveyda-Grubbs II, DCE.
Series [3] relates to recombinant NL-Rluc virus. In words: Inhibition of HIV replication (NL-RLuc luciferase reporter virus in MT-2 cells). In kind it is cell-based. The following applies: Human immunodeficiency virus 1, MT2, 120 h. Background: Reporter assays use an easily measured gene product as a stand-in for the process of interest.

Where two headings read alike, the source gives them in different places.

One may read the EC50 as the concentration that produces a half-maximal response.

In the case of `COC(=O)[C@@H](OC(C)(C)C)c1c(C)cn2nc3cc2c1N1CCC(C)(CC1)OCC=CC[C@H](C)Oc1cccc(F)c1-c1cccc-3c1`, in series [1] (from C=CCOC1(C)CCN(c2c([C@H](OC(C)(C)C)C(=O)OC)c(C)cn3nc(-c4cccc(-c5c(F)cccc5O[C@@H](C)CC=C)c4)cc23)CC1, 20-membered ring, then H2, Pd/C, 2.0 mM, 85.0 °C, 2.0 h, 3 steps), the ring closure, yield after HPLC was 19.6%.
Consider `COC(=O)[C@@H](OC(C)(C)C)c1c(C)cn2nc3cc2c1N1CCC(C)(CC1)OCC=CC[C@H](C)Oc1cc(F)ccc1-c1cccc-3c1`, for which the ring closure, yield after HPLC in series [1] (from C=CCOC1(C)CCN(c2c([C@H](OC(C)(C)C)C(=O)OC)c(C)cn3nc(-c4cccc(-c5ccc(F)cc5O[C@@H](C)CC=C)c4)cc23)CC1, 20-membered ring, then H2, Pd/C, 1.57 mM, 85.0 °C, 2.0 h, 3 steps) stood at 49.8%.
With `COC(=O)[C@@H](OC(C)(C)C)c1c(C)cn2nc3cc2c1N1CCC(C)(CC1)OCC=CC[C@H](C)Oc1ccc(F)cc1-c1cccc-3c1`, in series [1] (from C=CCOC1(C)CCN(c2c([C@H](OC(C)(C)C)C(=O)OC)c(C)cn3nc(-c4cccc(-c5cc(F)ccc5O[C@@H](C)CC=C)c4)cc23)CC1, 20-membered ring, then H2, Pd/C, 2.02 mM, 85.0 °C, 2.0 h, 3 steps), the ring closure, yield after HPLC was found to be 23.2%.
`COC(=O)[C@@H](OC(C)(C)C)c1c(C)cn2nc3cc2c1N1CCC(C)(CC1)OCC=CC(C)COc1ccc(C)cc1-c1cccc-3c1` (some centres unmarked): in series [2] (from C=CCOC1(C)CCN(c2c([C@H](OC(C)(C)C)C(=O)OC)c(C)cn3nc(-c4cccc(-c5cc(C)ccc5OCC(C)C=C)c4)cc23)CC1, 20-membered ring, 2.13 mM, 85.0 °C, 2.0 h), the ring closure, isolated yield stood at 82%.
Regarding `Cc1cn2nc(-c3ncc(Cc4ccc(F)cc4)s3)cc2c(N2CCC(C)(C)CC2)c1[C@H](OC(C)(C)C)C(=O)O` [Example 4, (S)-2-(tert-Butoxy)-2-(4-(4,4-dimethylpiperidin-1-yl)-2-(5-(4-fluorobenzyl)thiazol-2-yl)-6-methylpyrazolo[1,5-a]pyridin-5-yl)acetic acid], the EC50 in series [3] was determined as 18 nM.
For the molecule `Cc1cn2nc3ccccc3c2c(-c2cc(F)c3c(c2C)CCCO3)c1[C@H](OC(C)(C)C)C(=O)O` [Example 25, (2S)-2-(tert-Butoxy)-2-(10-(8-fluoro-5-methylchroman-6-yl)-8-methylpyrido[1,2-b]indazol-9-yl)acetic acid], the concentration for a half-maximal effect (EC50) in series [3] was 37 nM.
Still for that read-out and setting: then `Cc1cn2nc3cc2c(c1[C@H](OC(C)(C)C)C(=O)O)N1CCC(C)(CC1)OCCC[C@H](C)Oc1ccc(F)cc1-c1cccc-3c1` [Example 37, (2S)-2-(tert-Butoxy)-2-[(22S)-17-fluoro-4,22,27-trimethyl-21,26-dioxa-1,6,33-triazahexacyclo[25.2.2.1^6,^9.1^10,^14.0^2,^7.0^15,^20]tritriaconta-2,4,7,9(33),10(32),11,13,15(20),16,18-decaen-3-yl]acetic acid], with 29 nM.
In the case of `COC(=O)[C@@H](OC(C)(C)C)c1c(C)cn2nc3cc2c1N1CCC(C)(CC1)OCC=CCOc1ccccc1CC(O)CNC3=O` (some centres unmarked), in series [2] (from C=CCOc1ccccc1CC(O)CNC(=O)c1cc2c(N3CCC(C)(OCC=C)CC3)c([C@H](OC(C)(C)C)C(=O)OC)c(C)cn2n1, 21-membered ring, 1.81 mM, 70.0 °C, 3.0 h), the ring closure, isolated yield turned out to be 58%.
In series [2] (from C=CCOC1(C)CCN(c2c([C@H](OC(C)(C)C)C(=O)OC)c(C)cn3nc(-c4cccc(-c5cc(C#N)ccc5O[C@@H](C)CC=C)c4)cc23)CC1, 20-membered ring, 1.51 mM, 85.0 °C, 2.0 h), `COC(=O)[C@@H](OC(C)(C)C)c1c(C)cn2nc3cc2c1N1CCC(C)(CC1)OCC=CC[C@H](C)Oc1ccc(C#N)cc1-c1cccc-3c1` had a ring closure, isolated yield of 82%.
As to `Cc1ccc2c(c1)-c1cccc(c1)-c1cc3c(c([C@H](OC(C)(C)C)C(=O)O)c(C)cn3n1)N1CCC(C)(CC1)OCCCCC[C@@H](C)O2` (single isomer, unassigned) [Example 31], in series [3], the EC50 stood at 258 nM.
On the same count and under the same terms, under `C=CCOC1(C)CCN(c2c([C@H](OC(C)(C)C)C(=O)O)c(C)cn3nc(-c4cccc(Br)c4)cc23)CC1` [Example 28, (S)-2-(4-(4-(Allyloxy)-4-methylpiperidin-1-yl)-2-(3-bromophenyl)-6-methylpyrazolo[1,5-a]pyridin-5-yl)-2-(tert-butoxy)acetic acid] stands 138 nM; under `Cc1cc(CNC(=O)c2cc3c(-c4cc(F)c5c(c4C)CCCO5)c([C@H](OC(C)(C)C)C(=O)O)c(C)cn3n2)ccc1F` [Example 1], 3 nM.
Molecule `COC(=O)[C@@H](OC(C)(C)C)c1c(C)cn2nc3cc2c1N1CCC(C)(CC1)OCC=CCC[C@H](C)Oc1ccc(C)cc1-c1cccc-3c1` registered a ring closure, yield after HPLC in series [1] (from C=CCC[C@H](C)Oc1ccc(C)cc1-c1cccc(-c2cc3c(N4CCC(C)(OCC=C)CC4)c([C@H](OC(C)(C)C)C(=O)OC)c(C)cn3n2)c1, 21-membered ring, then H2, Pd/C, 1.86 mM, 85.0 °C, 3.0 h, 3 steps) of 40.6%.
`Cc1cn2nc3cc2c(c1[C@H](OC(C)(C)C)C(=O)O)N1CCC(C)(CC1)OC/C=C/COc1ccccc1Cc1cnc-3s1` [Example 27, (2S)-2-(tert-Butoxy)-2-[(23E)-4,27-dimethyl-21,26-dioxa-32-thia-1,6,11,33-tetraazahexacyclo[25.2.2.1^6,^9.1^10,^13.0^2,^7.0^15,^20]tritriaconta-2,4,7,9 (33),10,12,15(20),16,18,23-decaen-3-yl]acetic acid]: the EC50 in series [3] turned out to be 4 nM.
On the same count and under the same terms, under `Cc1cc(CNC(=O)c2cc3c(N4CCC(C)(C)CC4)c([C@H](OC(C)(C)C)C(=O)O)c(C)cn3n2)ccc1F` [Example 3, (S)-2-(tert-Butoxy)-2-(4-(4,4-dimethylpiperidin-1-yl)-2-((4-fluoro-3-methylbenzyl)carbamoyl)-6-methylpyrazolo[1,5-a]pyridin-5-yl)acetic acid] stands 17 nM; under `Cc1cn2nc3cc2c(c1[C@H](OC(C)(C)C)C(=O)O)N1CCC(C)(CC1)OCCCC[C@H](C)Oc1cccc(F)c1-c1cccc-3c1` [Example 34, (2S)-2-(tert-Butoxy)-2-[(22S)-16-fluoro-4,22,28-trimethyl-21,27-dioxa-1,6,34-triazahexacyclo[26.2.2.1^6,^9.1^10,^14.0^2,^7.0^15,^20]tetratriaconta-2,4,7,9(34),10(33),11,13,15(20),16,18-decaen-3-yl]acetic acid], 14 nM.
`COC(=O)[C@@H](OC(C)(C)C)c1c(C)cn2nc3cc2c1N1CCC(C)(CCC=CCOc2cc(F)ccc2CNC3=O)CC1`: in series [1] (from C=CCCC1(C)CCN(c2c([C@H](OC(C)(C)C)C(=O)OC)c(C)cn3nc(C(=O)NCc4ccc(F)cc4OCC=C)cc23)CC1, 19-membered ring, 1.57 mM, 70.0 °C, 2.0 h, 2 steps), the ring closure, yield after HPLC was 53.5%.
Turning to `Cc1ccc2c(c1)-c1cccc(c1)-c1cc3c(c([C@H](OC(C)(C)C)C(=O)O)c(C)cn3n1)N1CCC(C)(CC1)OCCCC[C@H](C)O2` [Example 29, (2S)-2-(tert-Butoxy)-21[(22S)-4,17,22,28-tetramethyl-21,27-dioxa-1,6,34-triazahexacyclo[26.2.2.1^6,^9.1^10,^14.0^2,^7.0^15,^20]tetratriaconta-2,4,7,9 (34),10(33),11,13,15(20),16,18-decaen-3-yl]acetic acid], the EC50 in series [3] amounted to 40 nM.
On the same count and under the same terms, then `Cc1ccc2c(c1F)-c1cccc(c1)-c1cc3c(c([C@H](OC(C)(C)C)C(=O)O)c(C)cn3n1)N1CCC(C)(CC1)OCCCC[C@H](C)O2` [Example 39, (2S)-2-(tert-Butoxy)-2-[(22S)-16-fluoro-4,17,22,28-tetramethyl-21,27-dioxa-1,6,34-triazahexacyclo[26.2.2.1^6,^9.1^10,^14.0^2,^7.0^15,^20]tetratriaconta-2,4,7,9(34),10(33),11,13,15(20),16,18-decaen-3-yl]acetic acid], with 38 nM; and `Cc1ccc2c(c1)-c1cccc(c1)-c1cc3c(c([C@H](OC(C)(C)C)C(=O)O)c(C)cn3n1)N1CCC(C)(CC1)OCCCCC[C@H](C)O2` [Example 30, (2S)-2-(tert-Butoxy)-2-[(22S)-4,17,22,29-tetramethyl-21,28-dioxa-1,6,35-triazahexacyclo[27.2.2.1^6,^9.1^10,^14.0^2,^7.0^15,^20]pentatriaconta-2,4,7,9 (35),10(34),11,13,15(20),16,18-decaen-3-yl]acetic acid], with 84 nM.
`COC(=O)[C@@H](OC(C)(C)C)c1c(C)cn2nc3cc2c1N1CCC(C)(CC1)OCC=CC[C@H](C)Oc1ccc(C)c(F)c1-c1cccc-3c1` came in with a ring closure, yield after HPLC in series [1] (from C=CCOC1(C)CCN(c2c([C@H](OC(C)(C)C)C(=O)OC)c(C)cn3nc(-c4cccc(-c5c(O[C@@H](C)CC=C)ccc(C)c5F)c4)cc23)CC1, 20-membered ring, then H2, Pd/C, 2.0 mM, 80.0 °C, 4.0 h, 3 steps) of 11%.
Turning to `Cc1cc(CNC(=O)c2cc3c(-c4ccc5c6c(ccnc46)CCO5)c([C@H](OC(C)(C)C)C(=O)O)c(C)cn3n2)ccc1F` (atropisomer, axis not shown) [Example 2, (2S)-2-(tert-Butoxy)-2-(4-(2,3-dihydropyrano[4,3,2-de]quinolin-7-yl)-2-((4-fluoro-3-methylbenzyl)carbamoyl)-6-methylpyrazolo[1,5-a]pyridin-5-yl)acetic acid], the EC50 in series [3] worked out at 63 nM.
On the same count and under the same terms, then `Cc1ccc2c(c1)-c1cccc(c1)-c1cc3c(c([C@H](OC(C)(C)C)C(=O)O)c(C)cn3n1)N1CCC(C)(CC1)OCCC[C@@H](C)CO2` (single isomer, unassigned) [Example 33], with 116 nM.
